One data set deals with human D3 receptor (Homo sapiens, UniProt P35462). Description: Radioligand binding to cloned human D3 receptor expressed in HEK-293 EBNA cells ([3H]-spiperone).
The next data set deals with T1, human D2 receptor (Homo sapiens, UniProt P14416).
T1 construct: expressed in transfected cells; host or cells: HEK293 EBNA cells, transient transfection; membrane preparation
Briefly: Radioligand binding to cloned human D2 receptor expressed in HEK-293 EBNA cells ([3H]-spiperone). The following applies: HEK293 EBNA cell membranes, approximately 0.7 nM [3H]-spiperone, 1 h at RT.

A further data set deals with human 5-HT2A receptor (Homo sapiens, UniProt P28223). Description: Radioligand binding to cloned human 5-HT2A receptor expressed in HEK-293 EBNA cells ([3H]-ketanserin).
Sequence of human 5-HT2A receptor (P28223 whole entry): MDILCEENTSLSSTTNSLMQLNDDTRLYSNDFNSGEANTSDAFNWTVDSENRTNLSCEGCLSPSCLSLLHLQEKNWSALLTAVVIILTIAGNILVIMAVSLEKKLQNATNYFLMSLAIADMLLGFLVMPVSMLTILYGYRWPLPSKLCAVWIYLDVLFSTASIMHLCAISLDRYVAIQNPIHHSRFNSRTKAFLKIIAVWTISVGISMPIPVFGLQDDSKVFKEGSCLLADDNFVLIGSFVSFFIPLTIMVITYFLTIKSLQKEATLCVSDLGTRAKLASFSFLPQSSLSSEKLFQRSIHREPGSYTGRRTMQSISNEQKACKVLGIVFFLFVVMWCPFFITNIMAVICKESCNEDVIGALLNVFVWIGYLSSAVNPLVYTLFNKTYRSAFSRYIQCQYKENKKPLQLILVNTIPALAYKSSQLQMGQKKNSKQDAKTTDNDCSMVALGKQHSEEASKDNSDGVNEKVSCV

Molecules are shown by their SMILES.

T1 sequence (P14416 whole entry): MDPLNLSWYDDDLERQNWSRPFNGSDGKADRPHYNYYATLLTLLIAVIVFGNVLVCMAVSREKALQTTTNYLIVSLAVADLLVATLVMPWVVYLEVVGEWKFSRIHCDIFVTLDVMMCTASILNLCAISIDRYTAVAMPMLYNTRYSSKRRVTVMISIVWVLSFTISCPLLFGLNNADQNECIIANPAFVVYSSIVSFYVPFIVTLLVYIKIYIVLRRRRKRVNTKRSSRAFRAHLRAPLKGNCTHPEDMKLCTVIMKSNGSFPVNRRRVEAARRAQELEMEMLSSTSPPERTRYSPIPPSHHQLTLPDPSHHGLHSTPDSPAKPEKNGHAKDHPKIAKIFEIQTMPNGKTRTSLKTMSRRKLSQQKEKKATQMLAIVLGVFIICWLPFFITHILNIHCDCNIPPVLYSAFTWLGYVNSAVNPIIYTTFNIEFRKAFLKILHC
Sequence of human D3 receptor (P35462 whole entry): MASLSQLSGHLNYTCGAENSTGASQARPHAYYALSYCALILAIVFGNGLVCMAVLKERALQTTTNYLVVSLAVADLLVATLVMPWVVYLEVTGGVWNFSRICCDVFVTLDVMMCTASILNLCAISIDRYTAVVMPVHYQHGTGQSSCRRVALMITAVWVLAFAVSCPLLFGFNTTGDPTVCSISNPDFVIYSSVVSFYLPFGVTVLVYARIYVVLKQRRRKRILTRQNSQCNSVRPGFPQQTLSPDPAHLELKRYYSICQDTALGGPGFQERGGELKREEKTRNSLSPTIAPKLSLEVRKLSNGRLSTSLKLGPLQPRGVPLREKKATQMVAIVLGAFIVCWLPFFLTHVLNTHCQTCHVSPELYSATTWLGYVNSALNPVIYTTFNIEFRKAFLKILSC
Protocol for human D2 receptor: (§1) HEK293 EBNA cells were transiently transfected with expression plasmids encoding for the human D2 or D3 or for the human 5-HT2A receptor, respectively. The cells were harvested 48 h post-transfection, washed three times with cold PBS and stored at −80° C. prior to use. The pellet was suspended in cold 50 mM Tris-HCl buffer comprising 10 mM EDTA (pH 7.4) and was homogenized with a Polytron (Kinematica A G, Basel, Switzerland) for 20-30 sec at 12.000 rpm. After centrifugation at 48.000×g for 30 min at 4° C., the pellet was resuspended in cold 10 mM Tris-HCl buffer comprising 0.1 mM EDTA (pH 7.4), homogenized, and centrifuged as above. This pellet was further resuspended in a smaller volume of ice cold 10 mM Tris-HCl buffer comprising 0.1 mM EDTA (pH 7.4) and homogenized with a Polytron for 20-30 sec at 12.000 rpm. The protein content of this homogenate was determined with the Bio-Rad (Bradford) Protein Assay (Biorad Laboratories GmbH, München, Germany) according to the instructions of the manufacturer using gamma globulin as the standard. This homogenate was stored at −80° C. in aliquots and thawed immediately prior to use.
(§2) Aliquots of membrane preparations were thawed at RT, resupended in assay buffer (D2, D3: 50 mM Tris-HCl, 120 mM NaCl, 5 mM MgCl2, 1 mM EDTA, 5 mM KCl, 1.5 mM CaCl2, pH=7.4; 5-HT2A: 50 mM Tris-HCl, 10 mM MgCl2, 1 mM EGTA, pH=7.4), homogenized with a Polytron for 20-30 sec at 12.000 rpm and adjusted to a final concentration of approximately 7.5 μg protein/well (D2, D3) and 15 μg protein/well (5-HT2A), respectively.
(§3) The binding affinity (Ki) of the compounds was determined using radioligand binding. Membranes were incubated in a total volume of 200 μl with a fixed concentration of radioligand (final concentration approximately 0.7 nM [^3H]-spiperone for D2, 0.5 nM [^3H]-spiperone for D3, and 1.1 nM [^3H]-ketanserin for 5-HT2A) and ten concentrations of test compound in ranging between 10 μM-0.1 nM for 1 h at RT. At the end of the incubation, the reaction mixtures were filtered on to unifilter 96-well white microplates with bonded GF/C filters (Packard BioScience, Zürich, Switzerland; preincubated for 1 h in 0.1% polyethylenimine (PEI) in assay buffer) with a Filtermate 196 harvester (Packard BioScience) and washed 3 times with cold assay buffer. The nonspecific binding was determined with equally composed reaction mixtures in the presence of 10 μM unlabelled spiperone. Per well 45 μl of Microscint 40 (Perkin Elmer, Schwerzenbach, Switzerland) was added, plates for sealed, shaken for 20 min and counted for 3 min on a Topcount Microplate Scintillation Counter (Can berra Packard S A, Zürich, Switzerland) with quenching correction.
(§4) The CPM value for each duplicate of a concentration of competing compound was averaged (y1), then the % specific binding was calculated according to the equation (((y1−non-specific)/(total binding−non-specific))×100). Graphs were plotted with the % specific binding using XLfit, a curve fitting program that iteratively plots the data using Levenberg-Marquardt algorithm. The single site competition analysis equation used was y=A+((B−A)/(1+((x/C)D))), where y is the % specific binding, A is the minimum y, B is the maximum y, C is the IC50, x is the log 10 of the concentration of the competing compound and D is the slope of the curve (the Hill Coefficient). […] The affinity constant (Ki) was calculated using the Cheng-Prusoff equation Ki=(IC50/1+([L]/Kd), where [L] is the concentration of radioligand and Kd is the dissociation constant of the radioligand at the receptor as determined by the saturation isotherm.
Protocol for human D3 receptor: as §1, §2, §3, §4

In turn, `O=C(N[C@H]1CC[C@H](CCN2CCN(c3nccc4c3OCC4)CC2)CC1)c1ccc(N2CCCCC2)cc1` [Example 57, trans-N-(4-{2-[4-(2,3-Dihydro-furo[2,3-c]pyridin-7-yl)-piperazin-1-yl]-ethyl}-cyclohexyl)-4-piperidin-1-yl-benzamide] yielded a melting point of 182.5 °C. The molecule further returned an inhibition constant Ki on human D3 receptor of 42.7 nM. Besides, affinity on human D2 receptor was put at a Ki of 1760 nM. Also, at human 5-HT2A receptor, the Ki turned out to be 50.6 nM.

For `CC(C)(O)C(=O)N[C@H]1CC[C@H](CCN2CCN(c3nccc4c3OCC4)CC2)CC1` [Example 59, trans-N-(4-{2-[4-(2,3-Dihydro-furo[2,3-c]pyridin-7-yl)-piperazin-1-yl]-ethyl}-cyclohexyl)-2-hydroxy-2-methyl-propionamide], the melting point came out at 241 °C. Further, on human D3 receptor, the Ki is 44.7 nM. The inhibition constant (Ki) at human D2 receptor stood at 1130 nM. The affinity on human 5-HT2A receptor corresponds to a Ki of 8.48 nM.

Regarding `O=C(N[C@H]1CC[C@H](CCN2CCN(c3nccc4c3OCC4)CC2)CC1)c1ccc2c(c1)OCO2` [Example 60, Benzo[1,3]dioxole-5-carboxylic acid trans-(4-{2-[4-(2,3-dihydro-furo[2,3-c]pyridin-7-yl)-piperazin-1-yl]-ethyl}-cyclohexyl)-amide], the melting point is 213.5 °C. Moreover, the affinity on human D3 receptor corresponds to a Ki of 7.32 nM. The same molecule showed a Ki at human D2 receptor of 348 nM. On human 5-HT2A receptor, this molecule gave a Ki of 23 nM.

The molecule `Cc1cc(C(=O)N[C@H]2CC[C@H](CCN3CCN(c4nccc5c4OCC5)CC3)CC2)on1` [Example 61, 3-Methyl-isoxazole-5-carboxylic acid trans-(4-{2-[4-(2,3-dihydro-furo[2,3-c]pyridin-7-yl)-piperazin-1-yl]-ethyl}-cyclohexyl)-amide] came in with a melting point of 199 °C. Further, the affinity on human D3 receptor, expressed as Ki, was 26.1 nM. Besides, the Ki at human D2 receptor is 488 nM. At human 5-HT2A receptor, this molecule had a Ki of 48.6 nM.

`COC(CC(=O)N[C@H]1CC[C@H](CCN2CCN(c3nccc4c3OCC4)CC2)CC1)OC` [Example 62, trans-N-(4-{2-[4-(2,3-Dihydro-furo[2,3-c]pyridin-7-yl)-piperazin-1-yl]-ethyl}-cyclohexyl)-3,3-dimethoxy-propionamide] gave a melting point of 218 °C. On human D3 receptor, this molecule showed a Ki of 7.22 nM. For the same molecule, at human D2 receptor, the affinity corresponds to a Ki of 1280 nM. This molecule also yielded a Ki at human 5-HT2A receptor of 38.2 nM.

Turning to `COC(CCC(=O)N[C@H]1CC[C@H](CCN2CCN(c3nccc4c3OCC4)CC2)CC1)OC` [Example 63, trans-N-(4-{2-[4-(2,3-Dihydro-furo[2,3-c]pyridin-7-yl)-piperazin-1-yl]-ethyl}-cyclohexyl)-4,4-dimethoxy-butyramide], the melting point came to 204.5 °C. Also, the affinity at human D3 receptor corresponds to a Ki of 22.1 nM. On human D2 receptor, the affinity, expressed as Ki, was 1920 nM. Further, the Ki on human 5-HT2A receptor was found to be 35.3 nM.

`Cc1nc(-c2cccc(C(=O)N[C@H]3CC[C@H](CCN4CCN(c5nccc6c5OCC6)CC4)CC3)c2)no1` [Example 64, trans-N-(4-{2-[4-(2,3-Dihydro-furo[2,3-c]pyridin-7-yl)-piperazin-1-yl]-ethyl}-cyclohexyl)-3-(5-methyl-[1,2,4]oxadiazol-3-yl)-benzamide] displayed a melting point of 227.5 °C. Further, affinity on human D3 receptor was put at a Ki of 4.43 nM. Besides, on human D2 receptor, the “D2 Ki” value was “inactive”. Besides, at human 5-HT2A receptor, affinity was put at a Ki of 54.4 nM.

Molecule `O=C(N[C@H]1CC[C@H](CCN2CCN(c3nccc4c3OCC4)CC2)CC1)c1ccc(-n2cccn2)cc1` [Example 65, trans-N-(4-{2-[4-(2,3-Dihydro-furo[2,3-c]pyridin-7-yl)-piperazin-1-yl]-ethyl}-cyclohexyl)-4-pyrazol-1-yl-benzamide] showed a melting point of 225.5 °C. The same molecule displayed a Ki at human D3 receptor of 11.1 nM. The molecule further registered a Ki at human D2 receptor of 502 nM. On human 5-HT2A receptor, this molecule came in with a Ki of 29.2 nM.

As for `O=C(N[C@H]1CC[C@H](CCN2CCN(c3nccc4c3OCC4)CC2)CC1)c1ccc(-n2cccc2)cc1` [Example 66, trans-N-(4-{2-[4-(2,3-Dihydro-furo[2,3-c]pyridin-7-yl)-piperazin-1-yl]-ethyl}-cyclohexyl)-4-pyrrol-1-yl-benzamide], the melting point came out at 236.5 °C. On human D3 receptor, this molecule displayed a Ki of 13.8 nM. On human D2 receptor, this molecule came in with a Ki of 240 nM. The same molecule gave a Ki on human 5-HT2A receptor of 38 nM.

As to `O=C(N[C@H]1CC[C@H](CCN2CCN(c3nccc4c3OCC4)CC2)CC1)c1ccc(Cl)cc1Cl` [Example 67, trans-2,4-Dichloro-N-(4-{2-[4-(2,3-dihydro-furo[2,3-c]pyridin-7-yl)-piperazin-1-yl]-ethyl}-cyclohexyl)-benzamide], the melting point was found to be 243.5 °C. Besides, affinity on human D3 receptor was put at a Ki of 47.2 nM. Also, on human D2 receptor, the affinity, expressed as Ki, was 5050 nM. At human 5-HT2A receptor, affinity was put at a Ki of 93.3 nM.

Turning to `CN1CCN(c2ccc(C(=O)N[C@H]3CC[C@H](CCN4CCN(c5nccc6c5OCC6)CC4)CC3)cc2)CC1` [Example 68, trans-N-(4-{2-[4-(2,3-Dihydro-furo[2,3-c]pyridin-7-yl)-piperazin-1-yl]-ethyl}-cyclohexyl)-4-(4-methyl-piperazin-1-yl)-benzamide], the melting point was found to be 235.5 °C. At human D3 receptor, this molecule yielded a Ki of 6 nM. The same molecule yielded a Ki on human D2 receptor of 120 nM. Further, at human 5-HT2A receptor, the affinity corresponds to a Ki of 4.86 nM.

Consider `Cc1ccc(C(=O)N[C@H]2CC[C@H](CCN3CCN(c4nccc5c4OCC5)CC3)CC2)cn1` [Example 69, trans-N-(4-{2-[4-(2,3-Dihydro-furo[2,3-c]pyridin-7-yl)-piperazin-1-yl]-ethyl}-cyclohexyl)-6-methyl-nicotinamide], for which the melting point was 204 °C. Further, affinity on human D3 receptor was put at a Ki of 17.3 nM. Moreover, the Ki at human D2 receptor is 597 nM. At human 5-HT2A receptor, affinity was put at a Ki of 25.2 nM.

Molecule `O=C(N[C@H]1CC[C@H](CCN2CCN(c3nccc4c3OCC4)CC2)CC1)c1ccc(-c2ccccc2)cc1` [Example 70, Biphenyl-4-carboxylic acid trans-(4-{2-[4-(2,3-dihydro-furo[2,3-c]pyridin-7-yl)-piperazin-1-yl]-ethyl}-cyclohexyl)-amide] had a melting point of 220.5 °C. This molecule also had a Ki at human D3 receptor of 18.4 nM. For the same molecule, the Ki at human D2 receptor worked out at 556 nM. Besides, at human 5-HT2A receptor, the Ki is 45.6 nM.

Consider `O=C(N[C@H]1CC[C@H](CCN2CCN(c3nccc4c3OCC4)CC2)CC1)c1ccc(-c2cccnc2)cc1` [Example 71, trans-N-(4-{2-[4-(2,3-Dihydro-furo[2,3-c]pyridin-7-yl)-piperazin-1-yl]-ethyl}-cyclohexyl)-4-pyridin-3-yl-benzamide], for which the melting point was 235 °C. On human D3 receptor, this molecule showed a Ki of 7.61 nM. The same molecule showed a Ki at human D2 receptor of 270 nM. The same molecule yielded a Ki at human 5-HT2A receptor of 19.1 nM.

`N#Cc1ccc(C(=O)N[C@H]2CC[C@H](CCN3CCN(c4nccc5c4OCC5)CC3)CC2)cc1` [Example 72, trans-4-Cyano-N-(4-{2-[4-(2,3-dihydro-furo[2,3-c]pyridin-7-yl)-piperazin-1-yl]-ethyl}-cyclohexyl)-benzamide] gave a melting point of 262.5 °C. For the same molecule, the affinity at human D3 receptor, expressed as Ki, was 17.8 nM. The molecule also came in with a Ki on human D2 receptor of 633 nM. Further, at human 5-HT2A receptor, the Ki is 24.6 nM.

As for `O=C(N[C@H]1CC[C@H](CCN2CCN(c3nccc4c3OCC4)CC2)CC1)c1ccc(N2CCOCC2)nc1` [Example 73, trans-N-(4-{2-[4-(2,3-Dihydro-furo[2,3-c]pyridin-7-yl)-piperazin-1-yl]-ethyl}-cyclohexyl)-6-morpholin-4-yl-nicotinamide], the melting point was found to be 231 °C. This molecule displayed a Ki on human D3 receptor of 15 nM. For the same molecule, on human D2 receptor, affinity was put at a Ki of 479 nM. In addition, on human 5-HT2A receptor, the Ki was found to be 22.4 nM.
